# Experimental data from paper PMC7175277, “Hydroxylamine Analogue of Agmatine: Magic Bullet for Arginine Decarboxylase” (Biomolecules, 2020).
# Key:
# E. coli ODC = E. coli ODC (Escherichia coli, UniProt P21169); assay: E. coli ODC activity assay (HPLC of Put); type: biochemical; settings: partially purified ODC
# Procedure: (§1) The purification was performed using a modified procedure of earlier publication. E. coli strain DH5α was grown in Luria-Bertani broth at +37 °C with shaking (200 rpm) overnight. The cells were collected by centrifugation and the pellet was homogenized with Potter-Elvehjem in 10 volumes (w/v) of ice-cold 50 mM Tris-HCl pH 7.4, 1 mM DTT. The cell debris was removed by centrifugation at 12,000 g for 30 min at +4 °C. Solid (NH4)2SO4 was added to the supernatant, and the pellet precipitating between 39% and 53% saturation was separated. The precipitate was resuspended in ice-cold buffer containing 50 mM Tris-HCl pH 7.4 and 1 mM DTT and desalted by passage through Sephadex G-25 column (NAP-10 column, GE Healthcare). The protein concentration was measured with Bio-Rad protein reagent, and the partially purified enzyme preparation was mixed with 20% glycerol and aliquoted for storage at −80 °C.
# The ADC reaction mixture contained 50 mM Tris-HCl pH 7.8, 4 mM MgCl2, 1 mM DTT, 1.0 or 0.1 mM PLP and 20 μg of partially purified enzyme preparation in a total volume of 162 μL. The ODC reaction mixture contained 50 mM Tris-HCl pH 7.8, 1 mM EDTA, 2.4 mM DTT, 0.1 mM PLP and 20 μg of partially purified enzyme preparation. […] After incubation for 30 min (ADC) or 20 min (ODC) at +40 °C, 20 μL of 50% sulphosalicylic acid containing 50 μM diaminoheptane (internal standard) was added and the samples were analyzed for the content of agmatine (ADC) and Put (ODC) with HPLC as described previously. The kinetic parameters and IC50 values were determined with the aid of GraphPad Prism version 5.03 using nonlinear regression analysis.
# [1] = tested on: DU145 prostate cancer cells; assay: Growth of DU145 cells; type: cell-based; settings: SC (1 mM) alone; 3 days
# Procedure: (§2) DU145 prostate cancer cells were cultured in high-glucose Dulbecco’s Modified Eagle’s Medium supplemented with 10% heat-inactivated fetal bovine serum, 2 mM L-glutamine and 50 μg/mL gentamycin (all from Sigma-Aldrich). The cells were plated on 6-well plates and allowed to attach overnight. […] The cells were harvested, and the pellet was mixed with 150 μL of 5% sulphosalicylic acid containing 5 μM diaminoheptane (internal standard). Polyamine analysis was carried out as described previously.
# [2] = tested on: DU145 prostate cancer cells; assay: Intracellular polyamine pools of DU145 cells; type: cell-based; settings: SC (1 mM) alone; 3 days
# Procedure: as §2
# A. chrysogenum HY strain = assay: Polyamine content in the fungi, HY strain; type: cell-based, Acremonium chrysogenum; settings: 0.5 mM Spd, 24 h
# Procedure: (§3) WT and HY A. chrysogenum strains were preliminarily grown in tubes on CD medium slants for 7 days at 25 °C and used for the inoculation of 30 mL of a liquid CD medium (seed medium). The strains were cultivated on CD medium for 48 h at 26 °C and inoculated into ten volumes of CD medium. The fermentation was carried out for 120 h at 26 °C in 250-mL Erlenmeyer flasks on a CERTOMAT BS-1 shaker (Sartorius, Germany) at 230 rpm, as described earlier. After 24 h of culture, 1 mL aliquots were removed, fungi were separated by centrifugation (15 min, 14,000 g) and washed with H2O (3 × 2 mL). The washed biomass was subjected to three cycles of freezing (−80 °C) and thawing at 20 °C in 5% perchloric acid. After the final thaw, samples were vortexed for 2 min and centrifuged for 10 min at 14,000 g. The supernatant was used for the determination of polyamine content.
# (§4) The dry biomass was prepared from 2 mL aliquots of fermentation media after 24 h. The biomass was separated by centrifugation (15 min, 14,000 g), the precipitated fungi cells were washed in triplicate with 10 volumes of H2O, dried at 80 °C for 96 h to a constant weight and used for normalization of polyamine content in the fungi.
# (§5) Polyamines were determined by HPLC from 50 µL of the 5% perchloric acid supernatant using a precolumn modification with Dans-Cl following mostly the published protocol. 1,7-Diaminoheptane was used as an internal standard and proline applied to quench the dansylation reaction. The solution of the dansylated polyamines in toluene (2 μL) was mixed with 50% aq. ethanol (13 µL) and applied on a reversed phase column (Cosmosil C18-MS-II, 250 × 4.6 mm, 5 µm). The column was eluted (1 mL/min) with the gradient: 0 min—0% B; 4 min—65% B; 17 min—65% B; 19 min—100% B, 23 min—100% B, 25 min—0% B; 30 min—0% B. System A—40% acetonitrile, 60% H2O. System B—80% acetonitrile, 20% tetrahydrofuran. Column temperature 40 °C, pressure 80–120 bar, fluorescent detection: λex 340 nm, λem 530 nm (detector RF-20A, Shimadzu Scientific Instrument, Columbia, MD, USA).
# A. chrysogenum WT strain = assay: Polyamine content in the fungi, WT strain; type: cell-based, Acremonium chrysogenum; settings: 0.5 mM Spd, 24 h
# Procedure: as §3, §4, §5
# [3] = substrate: N=C(N)NCCC[C@H](N)C(=O)O; assay: E. coli ADC activity assay (HPLC of agmatine); type: biochemical; settings: other: partially purified ADC, pH 7.8
# Procedure: as §1
# […] After incubation for 30 min (ADC) or 20 min (ODC) at +40 °C, 20 μL of 50% sulphosalicylic acid containing 50 μM diaminoheptane (internal standard) was added and the samples were analyzed for the content of agmatine (ADC) and Put (ODC) with HPLC as described previously. The kinetic parameters and IC50 values were determined with the aid of GraphPad Prism version 5.03 using nonlinear regression analysis.
# Chain of E. coli ODC (P21169 whole entry): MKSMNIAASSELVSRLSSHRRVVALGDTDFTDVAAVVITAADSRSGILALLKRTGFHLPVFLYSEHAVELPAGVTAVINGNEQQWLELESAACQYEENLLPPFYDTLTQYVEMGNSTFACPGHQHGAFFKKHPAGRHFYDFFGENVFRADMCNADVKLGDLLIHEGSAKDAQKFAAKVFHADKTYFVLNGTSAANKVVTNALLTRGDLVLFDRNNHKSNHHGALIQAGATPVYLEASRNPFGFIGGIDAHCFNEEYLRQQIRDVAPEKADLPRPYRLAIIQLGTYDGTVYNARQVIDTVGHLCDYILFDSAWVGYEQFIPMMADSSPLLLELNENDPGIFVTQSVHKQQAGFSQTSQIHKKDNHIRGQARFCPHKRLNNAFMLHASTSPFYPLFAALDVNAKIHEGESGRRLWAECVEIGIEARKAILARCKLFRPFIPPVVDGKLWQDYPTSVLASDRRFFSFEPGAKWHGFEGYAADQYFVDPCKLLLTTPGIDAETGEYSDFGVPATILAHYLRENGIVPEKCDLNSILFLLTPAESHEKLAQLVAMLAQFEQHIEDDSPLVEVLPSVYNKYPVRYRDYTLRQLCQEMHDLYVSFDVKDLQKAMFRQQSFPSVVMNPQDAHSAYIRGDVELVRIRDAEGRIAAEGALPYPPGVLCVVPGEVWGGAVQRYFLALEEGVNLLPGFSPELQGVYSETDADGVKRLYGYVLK
molecule,measurement,setting,value
"NCCC[C@H](N)C(=O)O [L-Orn, L-ornithine]",Vmax,E. coli ODC,709 ± 7 nmol/h/mg protein
"NNC(N)=O [SC, semicarbazide, reference compound]",Growth,[1],1.00 ± 0.04 Fold
same,Put,[2],1258 ± 157 pmol/mg Protein
same,Spd,[2],6483 ± 282 pmol/mg Protein
same,Spm,[2],3582 ± 146 pmol/mg Protein
"NCCCCNCCCN [Spd, spermidine]",Put,A. chrysogenum HY strain,<10 pmol/mg Dry Weight
same,Spd,A. chrysogenum HY strain,"39,180 ± 4840 pmol/mg Dry Weight"
same,Spm,A. chrysogenum HY strain,330 ± 10 pmol/mg Dry Weight
same,Put,A. chrysogenum WT strain,<10 pmol/mg Dry Weight
same,Spd,A. chrysogenum WT strain,"12,200 ± 2180 pmol/mg Dry Weight"
same,Spm,A. chrysogenum WT strain,70 ± 10 pmol/mg Dry Weight
"E. coli ADC (Escherichia coli K-12) (protein, The kinetic parameters determined for the partially purified biosynthetic ADC from E. coli; endogenous in cells; host or cells: E. coli DH5α (39-53% ammonium sulphate fraction of the lysate, desalted)) MSDDMSMGLPSSAGEHGVLRSMQEVAMSSQEASKMLRTYNIAWWGNNYYDVNELGHISVCPDPDVPEARVDLAQLVKTREAQGQRLPALFCFPQILQHRLRSINAAFKRARESYGYNGDYFLVYPIKVNQHRRVIESLIHSGEPLGLEAGSKAELMAVLAHAGMTRSVIVCNGYKDREYIRLALIGEKMGHKVYLVIEKMSEIAIVLDEAERLNVVPRLGVRARLASQGSGKWQSSGGEKSKFGLAATQVLQLVETLREAGRLDSLQLLHFHLGSQMANIRDIATGVRESARFYVELHKLGVNIQCFDVGGGLGVDYEGTRSQSDCSVNYGLNEYANNIIWAIGDACEENGLPHPTVITESGRAVTAHHTVLVSNIIGVERNEYTVPTAPAEDAPRALQSMWETWQEMHEPGTRRSLREWLHDSQMDLHDIHIGYSSGIFSLQERAWAEQLYLSMCHEVQKQLDPQNRAHRPIIDELQERMADKMYVNFSLFQSMPDAWGIDQLFPVLPLEGLDQVPERRAVLLDITCDSDGAIDHYIDGDGIATTMPMPEYDPENPPMLGFFMVGAYQEILGNMHNLFGDTEAVDVFVFPDGSVEVELSDEGDTVADMLQYVQLDPKTLLTQFRDQVKKTDLDAELQQQFLEEFEAGLYGYTYLEDE",Km,[3],158 ± 5 µM
same,Vmax,[3],546 ± 5 nmol/h/mg protein
